Columns and labels:
Type in all cases: biochemical
Conditions in all cases: ATP 100 μM
JAK1 = JAK1 (Homo sapiens (Human), UniProt P23458); assay: Enzyme assay (Assay Example^a 1), JAK1
JAK2 = JAK2 (Homo sapiens (Human), UniProt O60674); assay: Enzyme assay (Assay Example^a 1), JAK2
JAK3 = JAK3 (Homo sapiens (Human), UniProt P52333); assay: Enzyme assay (Assay Example^a 1), JAK3
Tyk2 = Tyk2 (Homo sapiens (Human), UniProt P29597); assay: Enzyme assay (Assay Example^a 1), Tyk2
Sequence of Tyk2 (P29597 whole entry): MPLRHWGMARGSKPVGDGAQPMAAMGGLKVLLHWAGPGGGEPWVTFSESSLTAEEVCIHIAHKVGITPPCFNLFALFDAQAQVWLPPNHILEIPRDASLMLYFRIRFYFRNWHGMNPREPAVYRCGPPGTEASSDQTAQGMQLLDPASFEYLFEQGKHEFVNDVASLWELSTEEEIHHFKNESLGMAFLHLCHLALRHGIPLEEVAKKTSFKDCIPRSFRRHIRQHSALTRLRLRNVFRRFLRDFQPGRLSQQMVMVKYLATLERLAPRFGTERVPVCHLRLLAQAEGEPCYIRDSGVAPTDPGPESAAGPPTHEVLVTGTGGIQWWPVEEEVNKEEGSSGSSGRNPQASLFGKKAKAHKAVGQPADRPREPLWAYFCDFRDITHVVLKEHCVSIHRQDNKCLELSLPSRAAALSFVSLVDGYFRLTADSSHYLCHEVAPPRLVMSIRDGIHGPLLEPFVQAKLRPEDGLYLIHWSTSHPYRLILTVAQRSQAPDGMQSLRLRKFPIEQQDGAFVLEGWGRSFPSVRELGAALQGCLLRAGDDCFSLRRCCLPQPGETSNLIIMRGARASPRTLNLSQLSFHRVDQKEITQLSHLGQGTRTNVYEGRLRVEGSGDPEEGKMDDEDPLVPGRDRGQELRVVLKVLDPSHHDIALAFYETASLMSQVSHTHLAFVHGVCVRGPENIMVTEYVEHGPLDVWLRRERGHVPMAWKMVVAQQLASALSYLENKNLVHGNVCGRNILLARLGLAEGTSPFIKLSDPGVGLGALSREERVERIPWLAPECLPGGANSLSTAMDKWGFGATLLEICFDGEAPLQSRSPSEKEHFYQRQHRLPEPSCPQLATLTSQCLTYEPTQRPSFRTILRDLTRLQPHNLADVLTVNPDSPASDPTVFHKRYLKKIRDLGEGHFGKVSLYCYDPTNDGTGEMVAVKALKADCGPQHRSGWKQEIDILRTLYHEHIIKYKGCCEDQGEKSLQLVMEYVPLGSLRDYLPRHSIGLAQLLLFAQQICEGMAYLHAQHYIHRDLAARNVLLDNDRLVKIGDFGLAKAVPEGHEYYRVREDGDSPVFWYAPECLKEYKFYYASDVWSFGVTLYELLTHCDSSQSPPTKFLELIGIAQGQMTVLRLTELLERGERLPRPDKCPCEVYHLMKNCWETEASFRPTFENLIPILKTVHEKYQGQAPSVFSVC

Sequence of JAK3 (P52333 whole entry): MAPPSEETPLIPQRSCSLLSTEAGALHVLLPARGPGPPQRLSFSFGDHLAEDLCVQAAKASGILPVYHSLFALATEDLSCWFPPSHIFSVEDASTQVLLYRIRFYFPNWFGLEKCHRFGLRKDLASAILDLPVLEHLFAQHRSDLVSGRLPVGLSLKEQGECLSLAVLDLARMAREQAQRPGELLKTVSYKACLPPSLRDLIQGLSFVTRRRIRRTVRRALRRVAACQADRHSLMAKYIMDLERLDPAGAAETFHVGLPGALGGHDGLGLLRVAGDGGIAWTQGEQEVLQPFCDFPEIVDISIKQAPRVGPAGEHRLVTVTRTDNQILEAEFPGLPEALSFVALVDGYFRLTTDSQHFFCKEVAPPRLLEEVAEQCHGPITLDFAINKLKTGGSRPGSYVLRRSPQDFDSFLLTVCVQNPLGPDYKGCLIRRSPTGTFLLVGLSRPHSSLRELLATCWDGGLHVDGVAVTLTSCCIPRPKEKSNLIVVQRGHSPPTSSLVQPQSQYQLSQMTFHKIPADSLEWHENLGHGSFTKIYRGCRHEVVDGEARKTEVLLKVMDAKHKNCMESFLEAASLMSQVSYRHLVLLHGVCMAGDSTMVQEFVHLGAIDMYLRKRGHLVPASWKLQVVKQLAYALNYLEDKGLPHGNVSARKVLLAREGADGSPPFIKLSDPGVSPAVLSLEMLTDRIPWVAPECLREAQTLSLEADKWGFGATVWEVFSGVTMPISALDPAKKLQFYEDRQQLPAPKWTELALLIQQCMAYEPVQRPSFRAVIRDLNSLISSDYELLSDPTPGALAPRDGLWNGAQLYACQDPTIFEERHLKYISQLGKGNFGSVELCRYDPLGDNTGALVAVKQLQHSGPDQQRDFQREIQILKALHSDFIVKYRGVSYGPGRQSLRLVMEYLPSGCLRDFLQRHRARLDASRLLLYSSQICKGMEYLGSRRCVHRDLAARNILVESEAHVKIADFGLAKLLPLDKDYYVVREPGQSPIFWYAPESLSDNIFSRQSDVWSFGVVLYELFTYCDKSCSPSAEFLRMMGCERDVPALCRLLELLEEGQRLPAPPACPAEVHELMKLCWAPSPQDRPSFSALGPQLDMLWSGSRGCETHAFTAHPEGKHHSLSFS

Row | SMILES | IC50 (JAK1; Table^a 154) | IC50 (JAK2; Table^a 154) | IC50 (JAK3; Table^a 154) | IC50 (Tyk2; Table^a 154) | IC50 (JAK1) | IC50 (JAK2) | IC50 (JAK3) | IC50 (Tyk2)
1 | c1ccc(CCNC[C@H]2CC[C@H](c3nnn4cnc5[nH]ccc5c34)CC2)cc1 [compound 174, N-{[trans-4-(7H-pyrrolo[3,2-e][1,2,3]triazolo[1,5-c]pyrimidin-1-yl)cyclohexyl]methyl}-2-phenylethanamine] | 0.0057 µM | 0.072 µM | 0.61 µM | 0.099 µM |  |  |  | 
2 | N#CCCN(CCC#N)C[C@H]1CC[C@H](c2nnn3cnc4[nH]ccc4c23)CC1 [compound 180, 3,3′-({[trans-4-(7H-pyrrolo[3,2-e][1,2,3]triazolo[1,5-c]pyrimidin-1-yl)cyclohexyl]methyl}azanediyl)dipropanenitrile] | 0.0013 µM | 0.0019 µM | 0.03 µM | 0.022 µM |  |  |  | 
3 | CS(=O)(=O)c1ccc(CN2CCC(c3nnn4cnc5[nH]ccc5c34)CC2)cc1 [compound 156] | 0.0032 µM | 0.042 µM | 0.52 µM | 0.65 µM |  |  |  | 
4 | N#CC(NC(=O)[C@H]1CC[C@H](c2nnn3cnc4[nH]ccc4c23)CC1)c1ccccc1 (stereo partly drawn) [compound 351, trans-N-[cyano(phenyl)methyl]-4-(7H-pyrrolo[3,2-e][1,2,3]triazolo[1,5-c]pyrimidin-1-yl)cyclohexanecarboxamide] |  |  |  |  | 0.012 µM | 0.089 µM | > 1 µM | > 1 µM
5 | Clc1ccc(NC[C@H]2CC[C@H](c3nnn4cnc5[nH]ccc5c34)CC2)cc1 [compound 176, N-{[trans-4-(7H-pyrrolo[3,2-e][1,2,3]triazolo[1,5-c]pyrimidin-1-yl)cyclohexyl]methyl}-4-chloroaniline] | 0.034 µM | 0.19 µM | > 1 µM | > 1 µM |  |  |  | 
6 | N#Cc1ccc(CCNC(=O)[C@H]2CC[C@H](c3nnn4cnc5[nH]ccc5c34)CC2)cc1 [compound 362, trans-N-(4-cyanophenethyl)-4-(7H-pyrrolo[3,2-e][1,2,3]triazolo[1,5-c]pyrimidin-1-yl)cyclohexanecarboxamide] |  |  |  |  | 0.0074 µM | 0.057 µM | > 1 µM | > 1 µM
7 | Fc1ccc([C@@H]2C[C@H]2CN[C@H]2CC[C@H](c3nnn4cnc5[nH]ccc5c34)CC2)cc1 (relative stereo) [389b, trans-N-{[trans-2-(4-fluorophenyl)cyclopropyl]methyl}-4-(7H-pyrrolo[3,2-e][1,2,3]triazolo[1,5-c]pyrimidin-1-yl)cyclohexanamine] |  |  |  |  | 0.0079 µM | 0.14 µM | > 1 µM | 0.67 µM
8 | N#Cc1ccc(CN2CCC(c3nnn4cnc5[nH]ccc5c34)CC2)cc1C#N [compound 242, 4-{[4-(7H-pyrrolo[3,2-e][1,2,3]triazolo[1,5-c]pyrimidin-1-yl)piperidin-1-yl]methyl}phthalonitrile] |  |  |  |  | 0.0065 µM | 0.052 µM | 0.96 µM | > 1 µM
9 | COCC1(NC[C@H]2CC[C@H](c3nnn4cnc5[nH]ccc5c34)CC2)CC1 [compound 293, N-{[trans-4-(7H-pyrrolo[3,2-e][1,2,3]triazolo[1,5-c]pyrimidin-1-yl)cyclohexyl]methyl}-1-(methoxymethyl)cyclopropanamine] |  |  |  |  | 0.024 µM | 0.1 µM | 0.94 µM | 0.31 µM
10 | CN(C)C[C@H]1CC[C@H](c2nnn3cnc4[nH]ccc4c23)CC1 [compound 296, 1-[trans-4-(7H-pyrrolo[3,2-e][1,2,3]triazolo[1,5-c]pyrimidin-1-yl)cyclohexyl]-N,N-dimethylmethanamine] |  |  |  |  | 0.0038 µM | 0.065 µM | 0.73 µM | 0.19 µM
11 | CCOC(=O)CC1CCC(c2nnn3cnc4[nH]ccc4c23)CC1 (stereo not drawn) [compound 438, Ethyl 2-[4-(7H-pyrrolo[3,2-e][1,2,3]triazolo[1,5-c]pyrimidin-1-yl)cyclohexyl]acetate] |  |  |  |  | 0.017 µM | 0.044 µM | 0.34 µM | 0.58 µM
12 | FC(F)(F)C1CCC(N2CCC(c3nnn4cnc5[nH]ccc5c34)CC2)CC1 (single isomer, unassigned) [56b] | 0.035 µM | 0.6 µM | > 1 µM | > 1 µM |  |  |  | 
